# Counter-ions that a name gives are not always drawn.
# Biological target: human tryptase
# Experiment: Inhibition of human tryptase (apparent dissociation constant, chromogenic substrate tos-Gly-Pro-Arg-pNA)
# Assay type: biochemical
# Details: pKiapp = -log Kiapp (mol/l); in the presence of substrate; heparin 0.1-50 μg/ml
# From the text: The documented pathophysiological effects of mast cell tryptase are brought about directly by the enzymatic activity of the protease. Accordingly, they are reduced or blocked by inhibitors which inhibit the enzymatic activity of tryptase. A suitable measure of the affinity of a reversible inhibitor for the target protease is the equilibrium dissociation constant Ki of the enzyme/inhibitor complex. This value of Ki can be determined via the influence of the inhibitor on the tryptase-induced cleavage of a chromogenic peptide-p-nitroanilide substrate or of a fluorogenic peptide-aminomethylcoumarin substrate.
# The dissociation constants for the tryptase/inhibitor complexes are determined under equilibrium conditions in accordance with the general proposals of Bieth (Bieth J G, Pathophysiological Interpretation of kinetic constants of protease inhibitors, Bull. Europ. Physiopath. Resp. 16:183-195,1980) and the methods of Sommerhoff et al. (Sommerhoff C P et al., A Kazal-type Inhibitor of human mast cell tryptase: Isolation from the medical leech Hirudo medicinalis, characterization, and sequence analysis, Biol. Chem. Hoppe-Seyler 375: 685-694, 1994).
# Human tryptase is prepared pure from lung tissue or is prepared by recombination; the specific activity of the protease which has been determined by titration is normally more than 85% of the theoretical value. Constant amounts of the tryptase are incubated in the presence of heparin (0.1-50 μg/ml) to stabilize the protease with increasing amounts of the inhibitors. After equilibrium has been reached between the reactants, the remaining enzymic activity is determined after addition of the peptide-p-nitroanilide substrate tos-Gly-Pro-Arg-pNA, whose cleavage is followed at 405 nm for 3 min. Alternatively, the remaining enzymatic activity can also be determined using fluorogenic substrates. The apparent dissociation constants Klapp (i.e. in the presence of substrate) are then found by nonlinear regression by fitting the enzyme rates to the general equation for reversible inhibitors (Morrison J F, Kinetics of the reversible inhibition of enzyme catalysed reactions by tight-binding inhibitors, Biochim. Biophys. Acta 185, 269-286, 1969): Vl/V0=1−{Et+It+Klapp−[(Et+It+Klapp)^2−4EtIt]^1/2}/2Et
# In this, Vl and V0 are the rates respectively in the presence and absence of the inhibitor and Et and It are the concentrations of tryptase and of the inhibitor.
# The apparent dissociation constants found for the compounds of the invention are evident from the following table A, in which the numbers of the compounds correspond to the numbers of the compounds in the examples [pKlapp=−logKlapp(mol/l)].
row,SMILES,pKiapp
1,"COC(=O)Cc1cc(C#CCOC(=O)NCc2ccc(N)nc2)cc(C#CCOC(=O)NC2CC(C(=O)OC)N(C(=O)CCc3cccc(CN)c3)C2)c1 (stereo not shown) [Compound 3, dihydrochloride]",7.80
2,"COC(=O)Cc1cc(C#CCOC(=O)NCc2ccnc(N)c2)cc(C#CCOC(=O)NC2CC(C(=O)OC)N(C(=O)CCc3cccc(CN)c3)C2)c1 (stereo not shown) [Compound 6, dihydrochloride]",7.19
3,"COC(=O)Cc1cc(C#CCOC(=O)NCc2ccnc(N)c2)cc(C#CCOC(=O)NC2CC(C(=O)OC)N(C(=O)CCc3ccc(CN)cc3)C2)c1 (stereo not shown) [Compound 5, dihydrochloride]",6.00
4,"COC(=O)Cc1cc(C#CCOC(=O)NCc2ccc(N)nc2)cc(C#CCOC(=O)NC2CC(C(=O)OC)N(C(=O)CCc3ccc(CN)cc3)C2)c1 (stereo not shown) [Compound 4, dihydrochloride]",6.57

# From US20050256171A1, “Pyrrolidine derivatives as tryptase inhibitors” (Altana Pharma A G, priority 2002, published 2005)
